Reference: article PMC9421653 (Journal of Medicinal Chemistry, 2022)
≈ marks a conversion by molar mass, not a printed value.

How the values were obtained:
[1] = molecular target: T1, human GPR84 (Homo sapiens, UniProt P04899+Q9NQS5); assay: biochemical; format: biochemical; settings: for LLE: LLE = pIC50 – CLog P; for GTPγS (pIC50): [35S]GTPγS assay, negative log of the IC50 in molar, mean ± SEM
T1 construct: expressed in transfected cells; host or cells: Flp-In T-REx 293 cells, doxycycline-induced; membrane preparations

[2] = molecular target: T2, human GPR84 (Homo sapiens, UniProt Q9NQS5); assay: biochemical; format: biochemical; settings: [35S]GTPγS assay; negative log of the IC50 in molar; mean ± SEM; read-out: GTPγS (pIC50) (converted)
T2 construct: expressed in transfected cells; host or cells: Flp-In T-REx 293 cells, doxycycline-induced; membrane preparations

[3] = physchem; settings: pH 7.4, Kinetic Solubility
Source text: DPI = 4,5-Diphenylimidazole
(2 pictures or pasted objects on this page, not shown here)

[4] = Mean, PBS pH7.4 in 2% DMSO by LC-MS
[5] = Mean, PBS pH7.4 in 2% DMSO by plate reader
[6] = R=1, PBS pH7.4 in 2% DMSO by LC-MS, replicate 1
[7] = R=1, PBS pH7.4 in 2% DMSO by plate reader, replicate 1
[8] = R=2, PBS pH7.4 in 2% DMSO by LC-MS, replicate 2
[9] = R=2, PBS pH7.4 in 2% DMSO by plate reader, replicate 2

T2 sequence (Q9NQS5+P04899 fused): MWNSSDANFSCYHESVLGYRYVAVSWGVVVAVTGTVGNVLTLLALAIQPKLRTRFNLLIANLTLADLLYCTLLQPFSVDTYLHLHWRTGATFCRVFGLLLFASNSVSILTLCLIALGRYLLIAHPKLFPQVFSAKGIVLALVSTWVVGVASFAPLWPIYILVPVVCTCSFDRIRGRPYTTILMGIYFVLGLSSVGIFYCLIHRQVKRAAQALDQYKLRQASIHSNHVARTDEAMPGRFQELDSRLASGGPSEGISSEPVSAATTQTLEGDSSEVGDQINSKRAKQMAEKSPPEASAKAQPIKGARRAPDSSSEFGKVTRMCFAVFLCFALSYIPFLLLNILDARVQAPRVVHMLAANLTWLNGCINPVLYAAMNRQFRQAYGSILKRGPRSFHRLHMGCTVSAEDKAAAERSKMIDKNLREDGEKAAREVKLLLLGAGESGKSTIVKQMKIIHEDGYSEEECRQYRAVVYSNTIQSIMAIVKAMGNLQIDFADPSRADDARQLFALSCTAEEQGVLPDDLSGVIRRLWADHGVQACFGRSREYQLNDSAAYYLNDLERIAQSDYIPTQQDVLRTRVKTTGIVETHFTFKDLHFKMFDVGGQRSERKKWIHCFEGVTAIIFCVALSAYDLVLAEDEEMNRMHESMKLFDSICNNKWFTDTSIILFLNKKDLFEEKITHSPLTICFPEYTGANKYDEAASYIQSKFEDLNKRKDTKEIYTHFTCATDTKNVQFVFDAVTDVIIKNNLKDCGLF
T1 sequence (Q9NQS5+P04899 fused): as above

Compound | IC50 [2] [nM] | GTPγS (pIC50) [1] | other results
Cc1nnc(Cc2c[nH]c3ccccc23)nc1-c1ccccc1 [Compound 28, 3-[(6-Methyl-5-phenyl-1,2,4-triazin-3-yl)methyl]-1H-indole] | 10200 |  | LLE [1]: 1.73
Cc1nc(Cc2c[nH]c3ccccc23)nnc1-c1ccccc1 [Compound 29, 3-[(5-Methyl-6-phenyl-1,2,4-triazin-3-yl)methyl]-1H-indole] | 5620 |  | LLE [1]: 1.99
c1ccc(-c2nnc(Cc3c[nH]c4cnccc34)nc2-c2ccc(CN3CCOCC3)cc2)cc1 [Compound 63, 4-(4-(3-((1H-Pyrrolo[2,3-c]pyridin-3-yl)methyl)-6-phenyl-1,2,4-triazin-5-yl)benzyl)morpholine] |  | 7.27 ± 0.06 | 
c1ccc(-c2nc(Cc3c[nH]c4cnccc34)nnc2-c2ccc(CN3CCOCC3)cc2)cc1 [Compound 64, 4-(4-(3-((1H-Pyrrolo[2,3-c]pyridin-3-yl)methyl)-5-phenyl-1,2,4-triazin-6-yl)benzyl)morpholine] |  | 8.33 ± 0.15 | 
COC(=O)c1ccc(-c2nc(Cc3c[nH]c4cnccc34)nnc2-c2ccccc2)cc1 [Compound 65, Methyl 4-(3-((1H-Pyrrolo[2,3-c]pyridin-3-yl)methyl)-6-phenyl-1,2,4-triazin-5-yl)benzoate] |  | 7.37 ± 0.33 | 
COC(=O)c1ccc(-c2nnc(Cc3c[nH]c4cnccc34)nc2-c2ccccc2)cc1 [Compound 66, Methyl 4-(3-((1H-Pyrrolo[2,3-c]pyridin-3-yl)methyl)-5-phenyl-1,2,4-triazin-6-yl)benzoate] |  | 7.02 ± 0.06 | 
CNC(=O)c1ccc(-c2nc(Cc3c[nH]c4cnccc34)nnc2-c2ccccc2)cc1 [Compound 67, 4-(3-((1H-Pyrrolo[2,3-c]pyridin-3-yl)methyl)-6-phenyl-1,2,4-triazin-5-yl)-N-methylbenzamide] |  | 6.48 ± 0.04 | 
O=C(NCCO)c1ccc(-c2nc(Cc3c[nH]c4cnccc34)nnc2-c2ccccc2)cc1 [Compound 69, 4-(3-((1H-Pyrrolo[2,3-c]pyridin-3-yl)methyl)-6-phenyl-1,2,4-triazin-5-yl)-N-(2-hydroxyethyl)benzamide] |  | 6.84 ±0.05 | 
O=C(NCCO)c1ccc(-c2nnc(Cc3c[nH]c4cnccc34)nc2-c2ccccc2)cc1 [Compound 70, 4-(3-((1H-Pyrrolo[2,3-c]pyridin-3-yl)methyl)-5-phenyl-1,2,4-triazin-6-yl)-N-(2-hydroxyethyl)benzamide] |  | 7.04 ± 0.07 | 
CNC(=O)c1ccc(-c2nc(Cc3c[nH]c4ccncc34)nnc2-c2ccccc2)cc1 [Compound 71, 4-(3-((1H-Pyrrolo[3,2-c]pyridin-3-yl)methyl)-6-phenyl-1,2,4-triazin-5-yl)-N-methylbenzamide] |  | 5.64 ± 0.05 | 
CNC(=O)c1ccc(-c2nnc(Cc3c[nH]c4ccncc34)nc2-c2ccccc2)cc1 [Compound 72, 4-(3-((1H-Pyrrolo[3,2-c]pyridin-3-yl)methyl)-5-phenyl-1,2,4-triazin-6-yl)-N-methylbenzamide] |  | 6.35 ± 0.06 | 
CNC(=O)c1ccc(-c2nnc(Cc3c[nH]c4ccccc34)nc2-c2ccccc2)cc1 [Compound 73, 4-(3-((1H-Indol-3-yl)methyl)-5-phenyl-1,2,4-triazin-6-yl)-N-methylbenzamide] |  | 7.18 ± 0.09 | 
O=C(c1ccc(-c2nnc(Cc3c[nH]c4ccccc34)nc2-c2ccccc2)cc1)N1CCOCC1 [Compound 74, (4-(3-((1H-Indol-3-yl)methyl)-5-phenyl-1,2,4-triazin-6-yl)phenyl)(morpholino)methanone] |  | 7.19 ± 0.07 | 
CN(C)CCNC(=O)c1ccc(-c2nnc(Cc3c[nH]c4ccccc34)nc2-c2ccccc2)cc1 [Compound 75, 4-(3-((1H-Indol-3-yl)methyl)-5-phenyl-1,2,4-triazin-6-yl)-N-(2-(dimethylamino)ethyl)benzamide] |  | 5.54 ± 0.10 | 
CN1CCN(C(=O)c2ccc(-c3nnc(Cc4c[nH]c5ccccc45)nc3-c3ccccc3)cc2)CC1 [Compound 77, (4-(3-((1H-Indol-3-yl)methyl)-5-phenyl-1,2,4-triazin-6-yl)phenyl)(4-methylpiperazin-1-yl)methanone] |  | 5.95 ± 0.10 | 
CC(=O)NCCNC(=O)c1ccc(-c2nnc(Cc3c[nH]c4ccccc34)nc2-c2ccccc2)cc1 [Compound 79, 4-(3-((1H-Indol-3-yl)methyl)-5-phenyl-1,2,4-triazin-6-yl)-N-(2-acetamidoethyl)benzamide] |  | 6.26 ± 0.06 | 
CN1CCN(C(=O)c2ccc(-c3nnc(Cc4c[nH]c5ccccc45)nc3-c3ccccc3)cc2)CC1=O [Compound 80, 4-(4-(3-((1H-Indol-3-yl)methyl)-5-phenyl-1,2,4-triazin-6-yl)benzoyl)-1-methylpiperazin-2-one] |  | 6.69 ± 0.04 | 
NC(=O)CNC(=O)c1ccc(-c2nnc(Cc3c[nH]c4ccccc34)nc2-c2ccccc2)cc1 [Compound 81, 4-(3-((1H-Indol-3-yl)methyl)-5-phenyl-1,2,4-triazin-6-yl)-N-(2-amino-2-oxoethyl)benzamide] |  | 5.80 ± 0.11 | 
O=C(c1ccc(-c2nc(Cc3c[nH]c4ccccc34)nnc2-c2ccccc2)cc1)N1CCOCC1 [Compound 83, (4-(3-((1H-Indol-3-yl)methyl)-6-phenyl-1,2,4-triazin-5-yl)phenyl)(morpholino)methanone] | 209 |  | 
CN(C)CCNC(=O)c1ccc(-c2nc(Cc3c[nH]c4ccccc34)nnc2-c2ccccc2)cc1 [Compound 84, 4-(3-((1H-Indol-3-yl)methyl)-6-phenyl-1,2,4-triazin-5-yl)-N-(2-(dimethylamino)ethyl)benzamide] | 1000 |  | 
O=C(NCCO)c1ccc(-c2nc(Cc3c[nH]c4ccccc34)nnc2-c2ccccc2)cc1 [Compound 85, 4-(3-((1H-Indol-3-yl)methyl)-6-phenyl-1,2,4-triazin-5-yl)-N-(2-hydroxyethyl)benzamide] | 28.8 |  | 
CN1CCN(C(=O)c2ccc(-c3nc(Cc4c[nH]c5ccccc45)nnc3-c3ccccc3)cc2)CC1 [Compound 86, (4-(3-((1H-Indol-3-yl)methyl)-6-phenyl-1,2,4-triazin-5-yl)phenyl)(4-methylpiperazin-1-yl)methanone] | 955 |  | 
COCCNC(=O)c1ccc(-c2nc(Cc3c[nH]c4ccccc34)nnc2-c2ccccc2)cc1 [Compound 87, 4-(3-((1H-Indol-3-yl)methyl)-6-phenyl-1,2,4-triazin-5-yl)-N-(2-methoxyethyl)benzamide] | 72.4 |  | 
CC(=O)NCCNC(=O)c1ccc(-c2nc(Cc3c[nH]c4ccccc34)nnc2-c2ccccc2)cc1 [Compound 88, 4-(3-((1H-Indol-3-yl)methyl)-6-phenyl-1,2,4-triazin-5-yl)-N-(2-acetamidoethyl)benzamide] | 209 |  | 
CN1CCN(C(=O)c2ccc(-c3nc(Cc4c[nH]c5ccccc45)nnc3-c3ccccc3)cc2)CC1=O [Compound 89, 4-(4-(3-((1H-Indol-3-yl)methyl)-6-phenyl-1,2,4-triazin-5-yl)benzoyl)-1-methylpiperazin-2-one] | 490 |  | 
NC(=O)CNC(=O)c1ccc(-c2nc(Cc3c[nH]c4ccccc34)nnc2-c2ccccc2)cc1 [Compound 90, 4-(3-((1H-Indol-3-yl)methyl)-6-phenyl-1,2,4-triazin-5-yl)-N-(2-amino-2-oxoethyl)benzamide] | 380 |  | 
c1ccc(-c2nc[nH]c2-c2ccccc2)cc1 [DPI, 4,5-Diphenylimidazole, reference compound] |  |  | solubility kinetic [3, 4]: 27 µM (≈ 5.95 µg/mL); solubility kinetic [3, 5]: 30 µM (≈ 6.61 µg/mL); solubility kinetic [3, 6]: 25 µM (≈ 5.51 µg/mL); solubility kinetic [3, 7]: 28 µM (≈ 6.17 µg/mL); solubility kinetic [3, 8]: 28 µM (≈ 6.17 µg/mL); solubility kinetic [3, 9]: 32 µM (≈ 7.05 µg/mL)
CC(=O)N1CCN(c2ccc(OCC3COC(Cn4ccnc4)(c4ccc(Cl)cc4Cl)O3)cc2)CC1 (stereo not drawn) [Ketoconazole, reference compound] |  |  | solubility kinetic [3, 4]: 103 µM (≈ 54.7 µg/mL); solubility kinetic [3, 5]: 129 µM (≈ 68.6 µg/mL); solubility kinetic [3, 6]: 101 µM (≈ 53.7 µg/mL); solubility kinetic [3, 7]: 128 µM (≈ 68 µg/mL); solubility kinetic [3, 8]: 105 µM (≈ 55.8 µg/mL); solubility kinetic [3, 9]: 129 µM (≈ 68.6 µg/mL)
Methyl 3-(3-((1H-Indol-3-yl)methyl)-5-phenyl-1,2,4-triazin-6-yl)benzoate [Compound 53] |  | 6.40 ± 0.05 | 
Methyl 3-(3-((1H-Indol-3-yl)methyl)-6-phenyl-1,2,4-triazin-5-yl)benzoate [Compound 54] |  | 6.94 ± 0.03 | 
